pIC50: −log10 of the molar value. Read-outs that look alike come from different tables or passages of the source.

For twelve molecules, IC50 results are on record in patent publication US20260176289A1, “SMALL MOLECULE INHIBITORS OF KRAS PROTEINS” (Merck Sharp & Dohme LLC, priority 2022, published 2026).

One experiment addresses KRAS-WT (Homo sapiens, UniProt P01116). The experiment in a line: SOS-catalyzed nucleotide exchange assay (Procedure A, TR-FRET), KRAS-WT. It is filed as biochemical. Particulars: nucleotide exchange, read-out: KRAS WT GNE IC50. The gist of the method: (§1)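 Biotinylated RAS (KRAS-G12C carries C51S/C80L/C118S; others WT background) preloaded with Bodipy-GDP plus Tb-streptavidin, preincubated with compound 60 min at RT, then human SOS and 3 mM GTP added. Final RAS/SOS: G12C 3 nM/40 nM, 60 min; WT 1 nM/40 nM, 60 min; G12V 1.25 nM/160 nM, 90 min; NRAS 1.25 nM/40 nM, 60 min. TR-FRET 520/495 ratio normalized to DMSO and saturating inhibitor; 10-point curves fit four-parameter logistic.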

For experiment [1], the target named is KRAS-G12C (C51S/C80L/C118S) (Homo sapiens, UniProt P01116, C118S/C51S/C80L/G12C). In words: SOS-catalyzed nucleotide exchange assay (Procedure A, TR-FRET), KRAS-G12C. Format: biochemical. Particulars: nucleotide exchange, Procedure A; read-out: KRAS G12C GNE IC50. Put shortly:
as §1

In the next experiment the target is KRAS-G12D (Homo sapiens, UniProt P01116, G12D). In words: SOS-catalyzed nucleotide exchange assay (Procedure A, TR-FRET), KRAS-G12D. It is filed as biochemical. Particulars: nucleotide exchange, read-out: KRAS G12D GNE IC50. Put shortly:
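Signal ratio (520/495 nm, excitation 340 nm) reports Bodipy-GDP retention on biotinylated RAS after SOS-catalyzed exchange with 3 mM GTP. SOS was 40 nM, except 160 nM for G12V. Room-temperature exchange lasted 60 min (90 min for G12V), following a 60 min compound preincubation.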

Another experiment addresses KRAS-G12V (Homo sapiens, UniProt P01116, G12V). The experiment in a line: SOS-catalyzed nucleotide exchange assay (Procedure A, TR-FRET), KRAS-G12V. Format: biochemical. Particulars: nucleotide exchange, read-out: KRAS G12V GNE IC50. Put shortly:
as §1

The target of a further experiment is KRAS-G13D (Homo sapiens, UniProt P01116, G13D). In words: SOS-catalyzed nucleotide exchange assay (Procedure A, TR-FRET), KRAS-G13D. Format: biochemical. Particulars: nucleotide exchange, Procedure A; read-out: KRAS G13D GNE IC50.
A further experiment has as its system PANC08.13 cells. The experiment in a line: Cellular phospho-ERK assay, PANC08.13 cells (homozygous KRAS-G12D). It is filed as cell-based. Particulars: Homo sapiens, read-out: PANC-08.13 pERK IC50. Here is the method:
Procedure for Cellular Phospho-ERK Assay in KRAS Wild Type and Mutant (G12D, G12V) Cell Lines
MKN-1 cells (JCRB JCRB0252) containing amplified wild-type KRAS, were cultured in growth medium that contains RPMI 1640-GlutaMAX™-I (ThermoFisher Scientific 61870) containing 10% heat inactivated fetal bovine serum (ThermoFisher Scientific 10091148), 1 mM sodium pyruvate and 10 mM HEPES. PANC08.13 cells (ATCC® CRL-2551™), containing homozygous KRAS-G12D activating mutation, were cultured in growth medium made of RPMI1640-GlutaMAX™-I (ThermoFisher Scientific 61870) containing 15% heat inactivated fetal bovine serum (ThermoFisher Scientific 10091148)). AsPC-1 cells (ATCC® CRL-1682™), containing homozygous KRAS-G12D activating mutation, were cultured in T150 flask in growth medium (RPMI medium 1640-GlutaMAX™-I (ThermoFisher Scientific 61870) containing 10% fetal bovine serum (ThermoFisher Scientific 10091148)). SW620 cells (ATCC® […]), containing homozygous KRAS-G12V activating mutation, were cultured in growth medium that contains RPMI 1640-GlutaMAX™-I (ThermoFisher Scientific 61870) containing 10% heat inactivated fetal bovine serum (ThermoFisher Scientific 10091148).
Cells for the assay were harvested in growth medium after TrypLE (ThermoFisher scientific 12604021) digestion and were seeded in a 384-well collagen coated cell culture plate (Corning 356702) at a density of 10,000-15,000 cells/20 μL/well, and incubated at 37° C., 5% CO2 overnight. The compound (with 10 mM stock concentration) dose-response titrations were prepared [30 μM final ERK detection assay concentration and 1:3 dilutions, 10-point dose response] and appropriate amounts (270 nL) of test compounds were dispensed in a 384-well intermediate plate using an Echo 550 liquid handler. 30 μL/well of RPMI medium 1640-GlutaMAX™—I was added to the intermediate plate and the contents of the intermediate plate (10 μL/well) were then transferred to the 384-well collagen coated cell culture plate, which was incubated at 37° C., 5% CO2 for 2 hours. After removal of medium from the collagen coated cell culture plate, cells were lysed in lysis buffer from Alpha SureFire® Ultra™ Multiplex p-ERK and total ERK assay kit (PerkinElmer MPSU-PTERK) containing Halt™ Protease and Phosphatase inhibitor cocktail (ThermoFisher Scientific 78446) at room temperature with constant shaking at 300 rpm for 30 minutes. The cell lysates were then transferred to an OptiPlate-384 plate (PerkinElmer 6005620), and the phosphorylation of ERK (p-ERK) and total ERK levels were detected by Alpha SureFire® Ultra™ Multiplex p-EEK kit and total ERK assay kit (PerkinElmer MPSU-PTERK) following the manufacturer's protocol. Assay plates were read on a En Vision Multimode Plate Reader (PerkinElmer), and the ratio of p-ERK vs. total ERK in each well was used as the final readout. Dose response curves were analyzed using a 4-parameter logistic model to calculate IC50 values using Spotfire software.

Sequence of KRAS-G12C (C51S/C80L/C118S) (P01116 with tags, fused parts or gaps isoform P01116-2 G12C/C51S/C80L/C118S): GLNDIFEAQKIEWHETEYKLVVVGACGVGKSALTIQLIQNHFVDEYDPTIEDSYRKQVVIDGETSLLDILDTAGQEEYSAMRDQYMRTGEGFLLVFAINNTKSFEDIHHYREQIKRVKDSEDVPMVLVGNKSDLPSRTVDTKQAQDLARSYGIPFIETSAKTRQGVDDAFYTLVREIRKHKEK
Sequence of KRAS-G13D (P01116 with tags, fused parts or gaps isoform P01116-2 G13D): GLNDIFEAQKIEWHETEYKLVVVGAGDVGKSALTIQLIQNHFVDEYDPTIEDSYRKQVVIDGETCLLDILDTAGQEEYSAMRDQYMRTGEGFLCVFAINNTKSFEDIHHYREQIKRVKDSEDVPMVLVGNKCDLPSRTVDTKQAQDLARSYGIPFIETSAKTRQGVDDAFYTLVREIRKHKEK
Sequence of KRAS-G12D (P01116 with tags, fused parts or gaps isoform P01116-2 G12D): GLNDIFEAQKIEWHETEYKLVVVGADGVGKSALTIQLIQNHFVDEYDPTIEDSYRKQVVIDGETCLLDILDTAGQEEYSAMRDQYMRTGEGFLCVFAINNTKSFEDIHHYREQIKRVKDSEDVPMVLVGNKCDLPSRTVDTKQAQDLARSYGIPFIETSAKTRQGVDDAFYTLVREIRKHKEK
Sequence of KRAS-WT (P01116 with tags, fused parts or gaps isoform P01116-2): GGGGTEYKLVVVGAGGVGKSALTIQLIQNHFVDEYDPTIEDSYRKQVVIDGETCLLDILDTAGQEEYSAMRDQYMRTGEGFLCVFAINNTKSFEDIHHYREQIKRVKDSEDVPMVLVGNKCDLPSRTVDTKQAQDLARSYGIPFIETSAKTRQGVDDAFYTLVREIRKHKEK
Sequence of KRAS-G12V (P01116 with tags, fused parts or gaps isoform P01116-2 G12V): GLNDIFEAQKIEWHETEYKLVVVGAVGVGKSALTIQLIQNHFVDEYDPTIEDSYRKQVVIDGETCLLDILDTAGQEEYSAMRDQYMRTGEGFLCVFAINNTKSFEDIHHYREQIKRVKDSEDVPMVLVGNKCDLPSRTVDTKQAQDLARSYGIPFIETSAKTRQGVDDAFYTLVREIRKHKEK

On to `C#Cc1c(F)ccc2cc(N)nc(-c3nccc4c5c(N6CCOC[C@@](C)(O)C6)nc(OC[C@@]67CCCN6C[C@H](F)C7)nc5n(C)c34)c12` [Ex-17, (S)-4-(8-(3-amino-8-ethynyl-7-fluoroisoquinolin-1-yl)-2-(((2R,7aS)-2-fluorotetrahydro-1H-pyrrolizin-7a(5H)-yl)methoxy)-9-methyl-9H-pyrido[4′,3′:4,5]pyrrolo[2,3-d]pyrimidin-4-yl)-6-methyl-1,4-oxazepan-6-ol], for which the pIC50 is 5.74 at KRAS-WT; 6.52 in experiment [1]; 5.85 at KRAS-G12D; 5.99 at KRAS-G12V; 6.23 on KRAS-G13D; 5.43 in the experiment on PANC08.13 cells (PANC-08-13, KRAS-G12D, 2 hours).
On to `Cc1cc2[nH]nc(C#N)c2c(-c2nccc3c4c(N5CCOC[C@@](C)(O)C5)nc(OC[C@@]56CCCN5C[C@H](F)C6)nc4n(C)c23)c1C(F)F` (single isomer, unassigned) [Ex-9], for which the negative-log IC50 (pIC50) at KRAS-WT was 5.87; in experiment [1] it was 6.25; at KRAS-G12D it was 6.21; at KRAS-G12V, 6.24; at KRAS-G13D it was 6.25; in the experiment with PANC08.13 cells (PANC-08-13, KRAS-G12D, 2 hours) it was 5.77.
Turning to `Cc1n[nH]c2cc(Cl)c(C(F)F)c(-c3nccc4c5c(N6CCOC[C@@](C)(O)C6)nc(OC[C@@]67CCCN6C[C@H](F)C7)nc5n(C)c34)c12` (single isomer, unassigned) [Ex-13], the negative-log IC50 (pIC50) at KRAS-WT is 5.56; in experiment [1], 5.83; on KRAS-G12D, 5.44; on KRAS-G12V, 5.78; at KRAS-G13D, 5.31; in the experiment with PANC08.13 cells (PANC-08-13, KRAS-G12D, 2 hours) it was 5.37.
`C[C@@]1(O)COCCN(c2nc(OC[C@@]34CCCN3C[C@H](F)C4)nc3sc4c(-c5c(C(F)F)c(Cl)cc6[nH]ncc56)nccc4c23)C1` [Ex-133, (6S)-4-(8-(6-chloro-5-(difluoromethyl)-1H-indazol-4-yl)-2-(((2R,7aS)-2-fluoro-tetrahydro-1H-pyr-rolizin-7a(5H)-yl)-methoxy)pyrido [4′,3′:4,5]thieno [2,3-d]pyrimidin-4-yl)-6-methyl-1,4-oxazepan-6-ol]: the pIC50 was 6.60 at KRAS-WT; 7.33 in experiment [1]; 6.92 at KRAS-G12D; 6.89 on KRAS-G12V; 6.96 at KRAS-G13D; 6.55 with PANC08.13 cells (PANC-08-13, 2 hours compound incubation).
As to `Cc1cc2[nH]ncc2c(-c2nccc3c4c(N5CCOCC(O)C5)nc(OC[C@@]56CCCN5C[C@H](F)C6)nc4n(C)c23)c1C(F)(F)F` (single isomer, unassigned) [Ex-23], the pIC50 on KRAS-WT was 5.92; in experiment [1], 6.72; on KRAS-G12D it was 5.84; at KRAS-G12V it was 6.18; at KRAS-G13D, 6.10; in the experiment on PANC08.13 cells (PANC-08-13, KRAS-G12D, 2 hours) it was 5.51.
Turning to `Cc1cc2[nH]ncc2c(-c2nccc3c2sc2nc(OC[C@@]45CCCN4C[C@H](F)C5)nc(N4CCOC[C@@](C)(O)C4)c23)c1C#N` [Ex-34, 4-(2-(((2R,7aS)-2-fluorotetrahydro-1H-pyrrolizin-7a(5H)-yl)methoxy)-4-((S)-6-hydroxy-6-methyl-1,4-oxazepan-4-yl)pyrido[4′,3′:4,5]thieno[2,3-d]pyrimidin-8-yl)-6-methyl-1H-indazole-5-carbonitrile], the negative logarithm of the IC50 (pIC50) on KRAS-WT is 6.31; in experiment [1] it was 6.76; at KRAS-G12D, 6.58; on KRAS-G12V it was 6.36; on KRAS-G13D, 5.96; with PANC08.13 cells (PANC-08-13, KRAS-G12D, 2 hours), 6.05.
For `Cc1cc2[nH]nc(C)c2c(-c2nccc3c4c(N5CCOC[C@@](C)(O)C5)nc(OC[C@@]56CCCN5C[C@H](F)C6)nc4n(C)c23)c1C(F)F` (single isomer, unassigned) [Ex-8], the pIC50 on KRAS-WT was 5.65; in experiment [1], 5.92; on KRAS-G12D, 5.82; at KRAS-G12V it was 5.78; at KRAS-G13D, 5.68; in the experiment with PANC08.13 cells (PANC-08-13, KRAS-G12D, 2 hours) it was 5.84.
Regarding `Cc1cc2[nH]ncc2c(-c2nccc3c2oc2nc(OC[C@]4(CN(C)C)CC4(F)F)nc(N4CCOC[C@@](C)(O)C4)c23)c1C(F)(F)F` [Ex-291, (6S)-4-(2-(((R)-1-((dimethylamino)methyl)-2.2-difluorocyclopropyl)meth-oxy)-8-(6-methyl-5-(trifluoromethyl)-1H-indazol-4-yl)pyrido[4′,3′:4,5]furo[2,3-d]pyrimidin-4-yl)-6-methyl-1,4-oxazepan-6-ol], the pIC50 is 6.42 on KRAS-WT; 6.94 in experiment [1]; 6.82 at KRAS-G12D; 6.68 at KRAS-G12V; 6.68 on KRAS-G13D; 6.51 with PANC08.13 cells (PANC-08-13, KRAS-G12D, 2 hours).
Consider `Cc1cc(-c2nccc3c2sc2nc(OC[C@@]45CCCN4C[C@H](F)C5)nc(N4CCOC[C@@](C)(O)C4)c23)c2cn[nH]c2c1` [Ex-37, (S)-4-(2-(((2R,7aS)-2-fluorotetrahydro-1H-pyrrolizin-7a(5H)-yl)methoxy)-8-(6-methyl-1H-indazol-4-yl)pyrido[4′,3′:4,5]thieno[2,3-d]pyrimidin-4-yl)-6-methyl-1,4-oxazepan-6-ol], for which the pIC50 at KRAS-WT was 5.51; in experiment [1] it was 5.83; on KRAS-G12D it was 5.84; on KRAS-G12V, 5.83; on KRAS-G13D, 5.61; in the experiment with PANC08.13 cells (PANC-08-13, KRAS-G12D, 2 hours) it was 5.74.
On to `C[C@@]1(O)COCCN(c2nc(OC[C@@]34CCCN3C[C@H](F)C4)nc3sc4c(-c5ccc(F)c6sc(N)c(C#N)c56)cncc4c23)C1` [Ex-274, 2-amino-7-fluoro-4-(2-(((2R,7aS)-2-fluorotetrahydro-1H-pyrrolizin-7a(5H)-yl)methoxy)-4-((S)-6-hydroxy-6-methyl-1,4-oxazepan-4-yl)pyrido[3′,4′:4,5]thieno[2,3-d]pyrimidin-8-yl)benzo[b]thiophene-3-carbonitrile], for which the pIC50 on KRAS-WT was 6.48; in experiment [1] it was 6.92; on KRAS-G12D, 6.17; on KRAS-G12V, 6.40; on KRAS-G13D it was 7.06; with PANC08.13 cells (PANC-08-13, KRAS-G12D, 2 hours), 6.00.
With `Cc1cc2c3c(N4CCOC[C@@](C)(O)C4)nc(OC[C@@]45CCCN4C[C@H](F)C5)nc3n(C)c2c(-c2c(C(F)(F)F)c(C)cc3[nH]ncc23)n1` (single isomer, unassigned) [Ex-28], the negative logarithm of the IC50 (pIC50) at KRAS-WT was 6.01; in experiment [1], 6.56; on KRAS-G12D, 6.20; at KRAS-G12V it was 6.03; at KRAS-G13D, 6.27; in the experiment with PANC08.13 cells (PANC-08-13, KRAS-G12D, 2 hours), 5.69.
`Cc1cc2[nH]ncc2c(-c2nccc3c4c(N5CC6CCC(F)(C5)N6)nc(OC[C@@]56CCCN5C[C@H](F)C6)nc4n(C)c23)c1C(F)(F)F` (single isomer, unassigned) [Ex-22]: the negative logarithm of the IC50 (pIC50) at KRAS-WT is 6.01; in experiment [1], 6.72; at KRAS-G12D, 5.61; at KRAS-G12V it was 6.39; at KRAS-G13D, 6.34; in the experiment with PANC08.13 cells (PANC-08-13, KRAS-G12D, 2 hours) it was 5.45.
